In ChEMBL document CHEMBL3045231, “Synthesis and insecticidal activity of new pyrethroids” (2009):

Assays:
Assay type in all cases: functional
Sitophilus zeamais [1] = test: Insecticidal activity against […] Sitophilus zeamais assessed as mortality at 5 ug/mg applied topically on thoracic tergite after 24 hr relative to control
Sitophilus zeamais [2] = test: Insecticidal activity against […] Sitophilus zeamais assessed as mortality at 5 ug/mg applied topically on thoracic tergite after 12 hr relative to control
Musca domestica [3] = test: Insecticidal activity against second-instar larval stage of Musca domestica (house fly) assessed as mortality at 5 ug/mg applied topically on thoracic tergite after 24 hr relative to control
Musca domestica [4] = test: Insecticidal activity against second-instar larval stage of Musca domestica (house fly) assessed as mortality at 5 ug/mg applied topically on thoracic tergite after 12 hr relative to control
Periplaneta americana [5] = test: Insecticidal activity against second-instar nymph stage of Periplaneta americana (American cockroach) assessed as mortality at 5 ug/mg applied topically on thoracic tergite after 24 hr (reference value: 1.7%)
Periplaneta americana [6] = test: Insecticidal activity against second-instar nymph stage of Periplaneta americana (American cockroach) assessed as mortality at 5 ug/mg applied topically on thoracic tergite after 12 hr (reference value: 1.7%)
Tuta absoluta [7] = test: Insecticidal activity against second-instar larval stage of Tuta absoluta assessed as mortality at 5 ug/mg applied topically on thoracic tergite after 24 hr (reference value: 1.7%)
Tuta absoluta [8] = test: Insecticidal activity against second-instar larval stage of Tuta absoluta assessed as mortality at 5 ug/mg applied topically on thoracic tergite after 12 hr (reference value: 1.7%)
Ascia monuste [9] = test: Insecticidal activity against second-instar larval stage of Ascia monuste orseis assessed as mortality at 5 ug/mg applied topically on thoracic tergite after 24 hr (reference value: 1.7%)
Ascia monuste [10] = test: Insecticidal activity against second-instar larval stage of Ascia monuste orseis assessed as mortality at 5 ug/mg applied topically on thoracic tergite after 12 hr relative to control

| SMILES | mortality (Sitophilus zeamais [1]) [%] | mortality (Sitophilus zeamais [2]) [%] | mortality (Musca domestica [3]) [%] | mortality (Musca domestica [4]) [%] | mortality (Periplaneta americana [5]) [%] | mortality (Periplaneta americana [6]) [%] | mortality (Tuta absoluta [7]) [%] | mortality (Tuta absoluta [8]) [%] | mortality (Ascia monuste [9]) [%] | mortality (Ascia monuste [10]) [%] |
| --- | --- | --- | --- | --- | --- | --- | --- | --- | --- | --- |
| COC(=O)[C@H]1[C@H](/C=C\c2ccc(Cl)cc2)C1(C)C | 0 | 0 | 25 | 20 | 100 | 92.5 | 100 | 100 | 90 | 85 |
| COC(=O)[C@H]1[C@H](/C=C/c2ccc(Cl)cc2)C1(C)C | 0 | 0 | 22.5 | 17.5 | 95 | 87.5 | 72.5 | 67.5 | 82.5 | 80 |
| COC(=O)[C@H]1[C@H](/C=C/c2ccc(F)cc2)C1(C)C | 7.5 | 5 | 15 | 10 | 67.5 | 62.5 | 77.5 | 60 | 90 | 65 |
| COC(=O)[C@H]1[C@H](/C=C\c2ccc(Br)cc2)C1(C)C | 0 | 0 | 25 | 15 | 72.5 | 70 | 18.1 | 15.6 | 85 | 15 |
| COC(=O)[C@H]1[C@H](/C=C/c2ccccc2)C1(C)C | 12.5 | 10 | 12.5 | 7.5 | 37.4 | 15.6 | 21.9 | 12.5 | 50 | 7.5 |
| CC1(C)C(C=C(Cl)Cl)C1C(=O)OCc1cccc(Oc2ccccc2)c1 (stereo not given) [PERMETHRIN] | 17.5 | 17.5 | 72.5 | 72.5 | 97.5 | 87.5 | 97.5 | 93.2 | 100 | 100 |
| COC(=O)[C@H]1[C@H](/C=C/c2ccc([N+](=O)[O-])cc2)C1(C)C | 0 | 0 | 25 | 17.5 | 20 | 10 | 55 | 35 | 36.4 | 2.5 |
| COC(=O)[C@H]1[C@H](/C=C\c2ccc([N+](=O)[O-])cc2)C1(C)C | 0 | 0 | 27.5 | 20 | 24.3 | 10.9 | 67.5 | 42.5 | 45 | 20 |
| COC(=O)[C@H]1[C@H](/C=C\c2ccccc2)C1(C)C | 12.5 | 10 | 12.5 | 7.5 | 37.4 | 15.6 | 21.9 | 12.5 | 50 | 7.5 |
| COC(=O)[C@H]1[C@H](/C=C\c2ccc(F)cc2)C1(C)C | 10 | 7.5 | 15 | 12.5 | 67.5 | 65 | 90 | 87.5 | 92.5 | 67.5 |
| COC(=O)[C@H]1[C@H](/C=C/c2ccc(Br)cc2)C1(C)C | 0 | 0 | 22.5 | 12.5 | 65 | 55 | 25 | 15 | 85 | 5 |
